This is an account of results in patent publication US20220193064A1, “MEDICAMENT FOR TREATING CANCER” (CHIOME BIOSCIENCE INC., priority 2019, published 2022).

Read-outs that look alike come from different tables or passages of the source.

The subject of experiment [1] is Hep3B xenograft model. Description: sensitivity to lenvatinib in Hep3B xenograft therapeutic model. Type of experiment: in vivo, NOD/SCID mice. Conditions: Day 29; for tumor volume (mean±standard deviation): 5 times a week, N=8; for tumor volume ratio (T/C) relative to the vehicle group: P<0.05. An excerpt:
(§1) Two cell lines (Hep3B and HepG2) derived from human hepatocellular carcinoma were compared for their sensitivity to lenvatinib mesylate (commercially available; hereinafter simply referred to as “lenvatinib” in this example) in xenograft therapeutic models.
In a Hep3B xenograft model, NOD/SCID mice were transplanted with the cells subcutaneously, and then divided into groups of 8 mice each at the time when the mean tumor volume exceeded 100 mm^3 (Day 14), and administration was started on the same day. The administration was conducted at a dose of 10 μL/g per mouse body weight via the oral route with an oral sonde, 5 times a week (administration for 5 days and withdrawal for 2 days) (12 times in total; Days 14, 15, 16, 17, 18, 21, 22, 23, 24, 25, 28 and 29) until the final day of the test. The tumor volume (mean±standard deviation) at 29 days after transplantation (Day 29; the final day of the test) was 1050.3±553.8 mm^3 in the group receiving vehicle (water for injection) (N=8), 400.9±160.9 mm^3 in the group receiving lenvatinib (3 mg/kg) (N=8), 200.2±133.3 mm^3 in the group receiving lenvatinib (10 mg/kg) (N=8), and 136.2±33.8 mm^3 in the group receiving lenvatinib (30 mg/kg) (N=8). The tumor volume ratio (T/C) relative to the vehicle group on Day 29 was 38.2% (P<0.05), 19.1% (P<0.05) and 13.0% (P<0.05), respectively, in the groups receiving lenvatinib (3, 10 and 30 mg/kg) (FIG. 3A).

In experiment [2] the test system is HepG2 xenograft model. Description: combined effect of lenvatinib and anti-hDLK-1 antibody on tumorigenesis inhibitory activity, HepG2 xenograft model. It counts as in vivo, NOD/ShiJic-scidJcl mice. The text has this:
Using a HepG2 xenograft model, lenvatinib mesylate and anti-hDLK-1 antibody were studied for their combined effect on tumorigenesis inhibitory activity.
(§2) The lenvatinib mesylate used here was commercially available (hereinafter simply referred to as “lenvatinib” in this example). The anti-hDLK-1 antibody used here was “HuBA-1-3D-1-A24G/T73K antibody” found in WO2014/054820 (hereinafter simply referred to as “HuBA-1-3D antibody” in this example), and DNA encoding this antibody protein was constructed in accordance with the procedures shown in WO2014/054820 (see the Example section in the specification), followed by production and preparation of this antibody protein in host cells using the GlymaxX® technology (ProBioGen AG; see https://www.probiogen.de/genetic-glyco-engineering-adcc-glymaxx.html). It should be noted that the HuBA-1-3D-1-A24G/T73K antibody used here has an H chain V region consisting of the amino acid sequence shown in SEQ ID NO: 36 and an L chain V region consisting of the amino acid sequence shown in SEQ ID NO: 46.
5×10^6 HepG2 cells were transplanted subcutaneously into the right flank of female NOD/ShiJic-scidJcl mice at 7 weeks of age (Day 0). At the stage where the mean tumor volume reached around 100 mm^3 (Day 10), these mice were divided into the following groups: the control group (N=8, 118.4±15 6 mm^3), the group receiving lenvatinib (10 mg/kg body weight) (N=8, 118.8±15.2 mm^3), the group receiving HuBA-1-3D antibody (1 mg/kg body weight) (N=8, 119.8±12.9 mm^3), and the group receiving both lenvatinib (10 mg/kg body weight) and HuBA-1-3D antibody (1 mg/kg body weight) (N=8, 119.7±13.4 mm^3) (hereinafter referred to as the group receiving lenvatinib+HuBA-1-3D antibody). For a period of 12 days starting from Day 10, HuBA-1-3D antibody was administered twice a week (4 times in total; Days 10, 13, 17 and 21), and lenvatinib was administered 5 times a week (administration for 5 days and withdrawal for 2 days) (10 times in total; Days 10, 11, 12, 13, 14, 17, 18, 19, 20 and 21). The tumor volume was measured at a frequency of twice a week, and an animal whose tumor volume reached 1500 mm^3 was excluded from observation.

Experiment [3] relates to unresectable hepatocellular carcinoma. Conditions: cited from earlier work.
The subject of experiment [4] is HepG2 xenograft model. Description: sensitivity to lenvatinib in HepG2 xenograft therapeutic model. Type of experiment: in vivo, NOD/SCID mice. Conditions: Day 28; for tumor volume (mean±standard deviation): 5 times a week, N=8; for tumor volume ratio (T/C) relative to the vehicle group: P<0.05.
Description: as §1
NOD/SCID mice were transplanted with the cells subcutaneously, and then divided into groups of 8 mice each at the time when the mean tumor volume exceeded 100 mm^3 (Day 10), and administration was started on the same day. The administration was conducted at a dose of 10 μL/g per mouse body weight via the oral route with an oral sonde, 5 times a week (administration for 5 days and withdrawal for 2 days) (14 times in total; Days 10, 11, 12, 13, 14, 17, 18, 19, 20, 21, 24, 25, 26 and 27) until the day before the final day of the test. The tumor volume (mean±standard deviation) at 28 days after transplantation (Day 28; the final day of the test) was 1163.0±205.1 mm^3 in the group receiving vehicle (water for injection) (N=8), 892.5±220.7 mm^3 in the group receiving lenvatinib (3 mg/kg) (N=8), 506.8±215.7 mm^3 in the group receiving lenvatinib (10 mg/kg) (N=8), and 380.0±146.8 mm^3 in the group receiving lenvatinib (30 mg/kg) (N=8). The tumor volume ratio (T/C) relative to the vehicle group on Day 28 was 76.7% (P<0.05), 43.6% (P<0.05) and 32.7% (P<0.05), respectively, in the groups receiving lenvatinib (3, 10 and 30 mg/kg) (FIG. 3B).

Experiment [5] relates to Hep3B xenograft model. Description: combined effect of lenvatinib and anti-hDLK-1 antibody on tumorigenesis inhibitory activity, Hep3B xenograft model. Type of experiment: in vivo, NOD/ShiJic-scidJcl mice. Conditions: for tumor weight: tumors collected on final day of observation (Day 38).
Description: Using a Hep3B xenograft model, lenvatinib mesylate and anti-hDLK-1 antibody were studied for their combined effect on tumorigenesis inhibitory activity.
as §2
1×10^6 Hep3B cells were transplanted subcutaneously into the right flank of female NOD/ShiJic-scidJcl mice at 6 to 7 weeks of age (Day 0). At the stage where the mean tumor volume reached around 100 mm^3 (Day 14), these mice were divided into the following groups: the control group (N=8, 103.5±18.1 mm^3), the group receiving lenvatinib (3 mg/kg body weight) (N=8, 102.8±16.8 mm^3), the group receiving HuBA-1-3D antibody (1 mg/kg body weight) (N=8, 102.7±15.0 mm^3), and the group receiving both lenvatinib (3 mg/kg body weight) and HuBA-1-3D antibody (1 mg/kg body weight) (N=8, 102.5±12.5 mm^3) (hereinafter referred to as the group receiving lenvatinib+HuBA-1-3D antibody). For a period of 12 days starting from Day 14, HuBA-1-3D antibody was administered twice a week (4 times in total; Days 14, 18, 22 and 25), and lenvatinib was administered 5 times a week (administration for 5 days and withdrawal for 2 days) (10 times in total; Days 14, 15, 16, 17, 18, 21, 22, 23, 24 and 25). The tumor volume was measured at a frequency of twice a week, and an animal whose tumor volume reached 1500 mm^3 was excluded from observation.

Where [6] appears, read: Day 21 (final day of administration), lenvatinib 10 mg/kg 5 times a week, HuBA-1-3D antibody 1 mg/kg twice a week, N=8.
Setting [7] is: Day 31 (10 days after completion of administration), lenvatinib 10 mg/kg, HuBA-1-3D antibody 1 mg/kg, N=8.
The mark [8] stands for this setting: Day 34 (13 days after completion of administration), lenvatinib 10 mg/kg, HuBA-1-3D antibody 1 mg/kg.
Setting [9] is: primary therapeutic agent, unresectable hepatocellular carcinoma, whole treatment group.
The mark [10] stands for this setting: Day 25 (final day of administration), lenvatinib 3 mg/kg 5 times a week, HuBA-1-3D antibody 1 mg/kg twice a week, N=8.
[11] abbreviates: Day 31 (6 days after completion of administration), lenvatinib 3 mg/kg, HuBA-1-3D antibody 1 mg/kg.
The mark [12] stands for this setting: Day 38 (13 days after completion of administration), lenvatinib 3 mg/kg, HuBA-1-3D antibody 1 mg/kg.
The mark [13] stands for this setting: lenvatinib 3 mg/kg, HuBA-1-3D antibody 1 mg/kg.

In the case of `COc1cc2nccc(Oc3ccc(NC(=O)NC4CC4)c(Cl)c3)c2cc1C(N)=O` [lenvatinib, 4-[3-chloro-4-(cyclopropylcarbamoylamino)phenoxy]-7-methoxy-quinoline-6-carboxamide], the “tumor volume (mean±standard deviation)” value in experiment [1] (lenvatinib 3 mg/kg oral) came out at 400.9±160.9 mm^3; in experiment [1] (lenvatinib 10 mg/kg oral), 200.2±133.3 mm^3; in experiment [1] (lenvatinib 30 mg/kg oral), 136.2±33.8 mm^3; in experiment [4] (lenvatinib 3 mg/kg oral), 892.5±220.7 mm^3; in experiment [4] (lenvatinib 10 mg/kg oral), 506.8±215.7 mm^3; in experiment [4] (lenvatinib 30 mg/kg oral) it was 380.0±146.8 mm^3. The “tumor volume ratio (T/C) relative to the vehicle group” value is listed as 38.2% in experiment [1] (lenvatinib 3 mg/kg); 19.1% in experiment [1] (lenvatinib 10 mg/kg); 13.0% in experiment [1] (lenvatinib 30 mg/kg); 76.7% in experiment [4] (lenvatinib 3 mg/kg); 43.6% in experiment [4] (lenvatinib 10 mg/kg); 32.7% in experiment [4] (lenvatinib 30 mg/kg). Besides, the tumor volume in experiment [2] (setting [6]) is on record as 326.2±188.7 mm^3; in experiment [2] (setting [7]), 817.4±583.4 mm^3; in experiment [2] (setting [8]), 796.2±461.7 mm^3; in experiment [5] (setting [10]), 268.1±175.7 mm^3; in experiment [5] (setting [11]) it was 572.2±456.0 mm^3; in experiment [5] (setting [12]), 1148.5±591.0 mm^3. Besides, the “animals sacrificed whose tumor volume exceeded 1500 mm^3” value in experiment [2] (Day 31, lenvatinib 10 mg/kg) is reported as “one of the 8 animals”. Further, the efficacy in experiment [3] (Japanese population (of 81 patients) assigned to the lenvatinib group) was 46.9%; in experiment [3] (setting [9]) it was 40.6%. In addition, the tumor weight in experiment [5] (setting [13]) stood at 841.1 ± 515.8 mg.

With `CNC(=O)c1cc(Oc2ccc(NC(=O)Nc3ccc(Cl)c(C(F)(F)F)c3)cc2)ccn1` [sorafenib], the efficacy in experiment [3] (setting [9]) is 12.4%.

B1: HuBA-1-3D antibody: humanized anti-hDLK-1 antibody from WO2014/054820; H chain V region SEQ ID NO: 36, L chain V region SEQ ID NO: 46; GlymaxX produced (antibody, V domains shown)
VH: QVQLVQSGAEVKKPGASVKVSCKGSGYTFTDYAMHWVRQAPGQGLEWIGVISTYYGNTNYNQKFKGKATMTVDKSTSTAYMELRSLRSDDTAVYYCARGGLREYYYAMDYWGQGTMVTVSS
VL: DIVMTQSPDSLAVSLGERATINCKSSQSLLNSSNQKNYLAWYQQKPGQPPKLLVYFASTRESGVPDRFSGSGSGTDFTLTISSLQAEDVAVYYCQQHYSTPPTFGQGTKLEIK
modifications: GlymaxX glycoengineered
notes: humanized anti-hDLK-1 antibody from WO2014/054820; GlymaxX produced
Take B1: the tumor volume is 116.4±42.4 mm^3 in experiment [2] (setting [6]); 394.0±169.8 mm^3 in experiment [2] (setting [7]); 584.1±241.9 mm^3 in experiment [2] (setting [8]); 144.6±111.2 mm^3 in experiment [5] (setting [10]); 92.9±79.3 mm^3 in experiment [5] (setting [11]); 402.3±364.4 mm^3 in experiment [5] (setting [12]). Further, the tumor weight in experiment [5] (setting [13]) turned out to be 392.3 ± 412.9 mg.
